Data published in patent publication US10111431B2, “Application of biofilm formation inhibiting compounds enhances control of citrus canker” (priority 2013, dated 2018).
Read-outs that look alike come from different tables or passages of the source.

Assays:
Type in all cases: cell-based, Xanthomonas citri subsp. citri
[1] = test system: X. citri subsp. citri strain 306; assay: Determination of minimum inhibitory concentrations (MICs) in NB medium, 96-well plate; conditions: Xanthomonas citri, 48 h
Method: Xac strain 306 was grown in NB at 28° C. with shaking at 200 rpm for 7 h. The cultures were standardized to an OD600 of 0.03 (5×10^7 colony forming unit (CFU)/mL) in NB and then aliquoted into wells of a 96-well plate, 190 μL per well. The initial test concentrations of the compounds were diluted (1:20) in the culture (10 μl of compound in 190 μl of culture) and incubated at 28° C. under stationary conditions. The cultures were monitored at 24 and 48 h at OD600, and the lowest concentration resulting in no growth after 48 h compared to the control samples was defined as the MIC for Xac strain 306. All determinations were conducted in eight replicate wells and repeated three times.

[2] = test system: Xac strain 306 biofilm formation; assay: Biofilm formation on citrus abaxial leaf surfaces; conditions: 10 mM D-leucine, 100 μg/mL IAN; 28° C., 24 h, crystal violet
Method: To gain further evidence of the effect of selected compounds on biofilm formation, biofilm formation in glass tubes and on leaf surfaces was examined as described previously (Li and Wang, 2012). Briefly, the standardized overnight culture of Xac 306 (OD600=1.0) were diluted 1:10 in fresh NB containing 1.0% glucose and the selected compound. For biofilm formation assay in glass tubes (Fischer Scientific, Pittsburgh, Pa.), 1 ml of the diluted bacterial suspension was transferred into each sterilized borosilicate glass tube and incubated at 28° C. without shaking for 48 h. The planktonic growth was then discarded and the tubes were gently washed three times with SDW. The biofilm formed on the tubes was visualized by staining with 0.1% CV. The stain remaining in cells on glass tubes was dissolved in 95% ethanol and quantified by measuring the optical density at 590 nm. For biofilm formation assay on leaf surfaces, 20 μl of the diluted bacterial suspension was dropped onto the abaxial surface of citrus leaves. The leaves were kept in a humidified chamber at 28° C. for 24 h without shaking. The biofilm formed on the leaf surfaces was visualized by staining with 0.1% CV. The biofilm assays were repeated three times with four replicates each time.

Xac306 biofilm formation = assay: Biofilm formation on polystyrene surface and in glass tubes at sub-MIC; conditions: Xanthomonas citri, read-out: level of biofilm formation, % of control
Method: A static biofilm formation assay in 96-well polystyrene plates coupled with CV staining was performed as previously reported with modifications (Li and Wang, 2011). Briefly, a 96-well polystyrene plate (Nunclon surface, Nuncbrand, Denmark) was prepared with 170 μL NB plus 1.0% glucose per well. Aliquots of 20 μL each of the different concentrations of the tested compound were pipetted into eight wells containing 170 μL of NB plus 1.0% glucose. To each of these wells was added 10 μL of the standardized overnight Xac 306 culture (OD600=1.0). Control wells contained NB plus 1.0% glucose and SDW or 0.1% DMSO as a sterility control, or standardized overnight Xac 306 culture as a growth control. […] After incubation, the planktonic growth was measured at OD600. To quantify the amount of biofilms formed on the surfaces of the wells, the culture was removed from the wells. […] The eluted CV was 2-fold diluted in double distilled water and the absorbance at 590 nm was measured. […]
To gain further evidence of the effect of selected compounds on biofilm formation, biofilm formation in glass tubes and on leaf surfaces was examined as described previously (Li and Wang, 2012). […] The stain remaining in cells on glass tubes was dissolved in 95% ethanol and quantified by measuring the optical density at 590 nm. […]

Xac 306 biofilm cells = assay: Resistance of Xac biofilm cells to copper, cell viability assay in glass tubes; conditions: for susceptibility of biofilms to CuSO4 relative to untreated control: 10 mM D-leucine, 100 μg/mL IAN; for cell viability of Xac biofilms exposed to CuSO4: CuSO4 1.0 mM plus biofilm inhibitor; for viable cells in biofilms: CuSO4 (1.0 mM) plus D-leucine 10.0 mM and/or IAN 100 μg/ml, 24 h
Method: The level of copper resistance of biofilms was evaluated using a cell viability assays. Briefly, Xac biofilms were prepared using NB with stationary incubation in glass tubes as described above. After 48 h-incubation, the cultures were removed and bacterial cells attached to the tubes were gently washed three times with SDW. One milliliter of fresh NB with CuSO4 (1.0 mM), D-leucine (10 mM) or IAN (100 μg/mL), or a combination of these compounds was added to each tube. NB alone was used as control. Tubes were kept at room temperature for 24 h and shaken vigorously for 5 min. The suspensions were diluted in 10-fold series, and 10 μL of each dilution spotted in triplicate on NA plate. Plates were incubated at 28° C. for 48 to 72 h prior to assessing bacterial growth. Colonies that grew near the dilution end-point were counted and bacterial populations in the initial suspensions prior to dilution were calculated. Each treatment compromises four replicates and the experiment repeated three times.

SMILES	MIC [1]	biofilm formation on citrus leaf surfaces [2]	activity at 10000 µM (Xac306 biofilm formation)	susceptibility of biofilms to CuSO4 relative to untreated control (Xac 306 biofilm cells)	cell viability of Xac biofilms exposed to CuSO4 (Xac 306 biofilm cells)	viable cells in biofilms (Xac 306 biofilm cells)	MIC ([1]; compound alone, NB medium, 28° C., stationary, OD600, read-out: MIC)	activity at 100 µg/mL (Xac306 biofilm formation; polystyrene surface and glass tubes, 10 mM D-leucine, 100 μg/mL IAN)
CC(C)C[C@@H](N)C(=O)O [D-leucine]	16 mM	declined biofilm formation	50%	about 10 times	significantly reduced	1.1×10^6 CFU/mL	–	–
N#CCc1c[nH]c2ccccc12 [IAN, 3-indolylacetonitrile]	–	declined biofilm formation	–	about 10 times	significantly reduced	4.3×10^6 CFU/mL	200 µg/mL	60%
